The results in this text go back to patent US10479819B2 (priority 2014, dated 2019).

For this test, the target named is T1, human GLP-1R (Homo sapiens, UniProt P43220).
T1 construct: expressed in transfected cells
T1 sequence (P43220 24-463): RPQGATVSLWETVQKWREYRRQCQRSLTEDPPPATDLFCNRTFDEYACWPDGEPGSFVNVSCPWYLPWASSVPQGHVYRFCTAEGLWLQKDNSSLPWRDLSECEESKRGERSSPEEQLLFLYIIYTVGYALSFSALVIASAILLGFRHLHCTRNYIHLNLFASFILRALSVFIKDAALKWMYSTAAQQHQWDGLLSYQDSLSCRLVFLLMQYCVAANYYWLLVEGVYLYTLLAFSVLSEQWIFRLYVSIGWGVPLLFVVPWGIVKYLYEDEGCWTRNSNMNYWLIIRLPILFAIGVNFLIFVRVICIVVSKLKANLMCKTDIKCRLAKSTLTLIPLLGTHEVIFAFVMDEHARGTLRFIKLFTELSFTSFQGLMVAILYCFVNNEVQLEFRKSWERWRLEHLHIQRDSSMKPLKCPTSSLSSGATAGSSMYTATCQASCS
As to the kind of experiment: In vitro activity on GLP-1R, CRE-luciferase HEK-293 cells. It is filed as cell-based. To be noted: ratio of EC50 GLP-1R to EC50 GCGR. As for the experimental part: 5000 of HEK-293 cells, which are used in CRE-luciferase system and express human GCGR or GLP-1R stably, were inoculated into 384 well plates according to […] DMEM/10% FBS media/well. […] After incubation, […] of luciferase reagent was added directly to each plate and mixed gently for 2 minutes. The plates were placed into an Elmer Perkin plate reader for reading. Concentration curve of the compound was made by drawing software Prism 5, and the EC50 value was calculated.
Consider `CCCCCCCCCCCCCCCC(=O)N[C@@H](CCC(=O)NCCOCCOCCC(=O)NCCOCCOCCC(=O)NCCCC[C@H](NC(=O)C(C)(C)NC(=O)[C@H](CC(=O)O)NC(=O)[C@H](CC(C)C)NC(=O)[C@H](Cc1ccc(O)cc1)NC(=O)[C@H](CCCCN)NC(=O)[C@H](CO)NC(=O)[C@H](Cc1ccc(O)cc1)NC(=O)[C@H](CC(=O)O)NC(=O)[C@H](CO)NC(=O)[C@@H](NC(=O)[C@H](Cc1ccccc1)NC(=O)[C@@H](NC(=O)CNC(=O)[C@H](CCC(N)=O)NC(=O)[C@@H](CO)NC(=O)[C@@H](N)Cc1c[nH]cn1)[C@@H](C)O)[C@@H](C)O)C(=O)N[C@@H](CCCNC(=N)N)C(=O)N[C@@H](C)C(=O)N[C@@H](CCC(N)=O)C(=O)N[C@@H](CC(=O)O)C(=O)N[C@@H](Cc1ccccc1)C(=O)N[C@H](C(=O)N[C@@H](CCC(N)=O)C(=O)N[C@@H](Cc1c[nH]c2ccccc12)C(=O)N[C@@H](CC(C)C)C(=O)N[C@@H](CCSC)C(=O)N[C@@H](CC(N)=O)C(=O)N[C@H](C(=O)NCC(=O)NCC(=O)N1CCC[C@H]1C(=O)N[C@@H](CO)C(=O)N[C@@H](CO)C(=O)NCC(=O)N[C@@H](C)C(=O)N1CCC[C@H]1C(=O)N1CCC[C@H]1C(=O)N1CCC[C@H]1C(=O)N[C@@H](CO)C(N)=O)[C@@H](C)O)C(C)C)C(=O)O` [Compound 13], for which the GLP-1R/GCGR worked out at 2.8. For the compound `CC(C)C[C@H](NC(=O)[C@H](CC(C)C)NC(=O)[C@H](Cc1c[nH]c2ccccc12)NC(=O)[C@H](CCC(=O)O)NC(=O)[C@@H](NC(=O)[C@H](Cc1ccccc1)NC(=O)[C@H](CC(=O)O)NC(=O)[C@H](Cc1c[nH]cn1)NC(=O)[C@H](C)NC(=O)[C@H](C)NC(=O)[C@H](CCCCNC(=O)CCOCCOCCNC(=O)CCOCCOCCNC(=O)CC[C@H](NC(=O)CCCCCCCCCCCCCCCCC(=O)O)C(=O)O)NC(=O)[C@H](CO)NC(=O)[C@H](CC(=O)O)NC(=O)[C@H](CC(C)C)NC(=O)[C@H](Cc1ccc(O)cc1)NC(=O)[C@H](CCCCN)NC(=O)[C@H](CO)NC(=O)[C@H](Cc1ccc(O)cc1)NC(=O)[C@H](CC(=O)O)NC(=O)[C@H](CO)NC(=O)[C@@H](NC(=O)[C@H](Cc1ccccc1)NC(=O)[C@@H](NC(=O)CNC(=O)[C@H](CCC(N)=O)NC(=O)[C@@H](CO)NC(=O)[C@@H](N)Cc1c[nH]cn1)[C@@H](C)O)[C@@H](C)O)C(C)C)C(=O)N[C@@H](CC(N)=O)C(=O)NCC(=O)NCC(=O)N1CCC[C@H]1C(=O)N[C@@H](CO)C(=O)N[C@@H](CO)C(=O)NCC(=O)N[C@@H](C)C(=O)N1CCC[C@H]1C(=O)N1CCC[C@H]1C(=O)N1CCC[C@H]1C(=O)N[C@@H](CO)C(N)=O` [Compound 3], the GLP-1R/GCGR was found to be 0.6.

As to `CCCCCCCCCCCCCCCC(=O)NCCOCCOCCC(=O)NCCOCCOCCC(=O)NCCCC[C@H](NC(=O)[C@H](CO)NC(=O)[C@H](Cc1ccc(O)cc1)NC(=O)[C@H](CC(=O)O)NC(=O)[C@H](CO)NC(=O)[C@@H](NC(=O)[C@H](Cc1ccccc1)NC(=O)[C@@H](NC(=O)CNC(=O)[C@H](CCC(N)=O)NC(=O)[C@@H](CO)NC(=O)[C@@H](N)Cc1c[nH]cn1)[C@@H](C)O)[C@@H](C)O)C(=O)N[C@@H](CCCCN)C(=O)N[C@@H](CC(C)C)C(=O)N[C@@H](CC(=O)O)C(=O)NC(C)(C)C(=O)N[C@@H](CCCNC(=N)N)C(=O)N[C@@H](CCCNC(=N)N)C(=O)N[C@@H](C)C(=O)N[C@@H](CCC(N)=O)C(=O)N[C@@H](CC(=O)O)C(=O)N[C@@H](Cc1ccccc1)C(=O)N[C@H](C(=O)N[C@@H](CCC(N)=O)C(=O)N[C@@H](Cc1c[nH]c2ccccc12)C(=O)N[C@@H](CC(C)C)C(=O)N[C@@H](CCSC)C(=O)N[C@@H](CC(N)=O)C(=O)N[C@H](C(=O)NCC(=O)NCC(=O)N1CCC[C@H]1C(=O)N[C@@H](CO)C(=O)N[C@@H](CO)C(=O)NCC(=O)N[C@@H](C)C(=O)N1CCC[C@H]1C(=O)N1CCC[C@H]1C(=O)N1CCC[C@H]1C(=O)N[C@@H](CO)C(N)=O)[C@@H](C)O)C(C)C` [Compound 15], the GLP-1R/GCGR stood at 2.5.
